Data reported in PubChem BioAssay AID1963439 (Molecular Pharmacology Branch, DTP, NCI, 2024).

Test system: NCI-H196 complex spheroids with HUVEC/MSC, growth % T/C
Experiment: Anticancer human tumor NCI-H196 cell line growth inhibition [Asc];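 further: spheroids exposed to compound for 7 days before measurement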;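 on viability, T/C: 100% = DMSO vehicle control wells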
Details: for IC50: curve of first compound; for viability, T/C: stronger effect = lower value
Method in brief: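 Complex spheroids combining tumor cells with HUVEC endothelial cells and human MSCs, at 37 degrees C, 5% CO2; agents tested alone or combined, half-log dilutions from at or near clinical Cmax, or 10 microM if Cmax unknown.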

[1] = second compound 0.03 µM, first compound 0.0316 µM
[2] = second compound 0.03 µM, first compound 0.1 µM
[3] = second compound 0.03 µM, first compound 0.316 µM
[4] = second compound 0.03 µM, first compound 1 µM
[5] = second compound 0.03 µM, first compound 3.16 µM
[6] = second compound 0.03 µM, first compound 10 µM
[7] = second compound 0.0949 µM, first compound 0.0316 µM
[8] = second compound 0.0949 µM, first compound 0.1 µM
[9] = second compound 0.0949 µM, first compound 0.316 µM
[10] = second compound 0.0949 µM, first compound 1 µM
[11] = second compound 0.0949 µM, first compound 3.16 µM
[12] = second compound 0.0949 µM, first compound 10 µM
[13] = second compound 0.3 µM, first compound 0.0316 µM
[14] = second compound 0.3 µM, first compound 0.1 µM
[15] = second compound 0.3 µM, first compound 0.316 µM
[16] = second compound 0.3 µM, first compound 1 µM
[17] = second compound 0.3 µM, first compound 3.16 µM
[18] = second compound 0.3 µM, first compound 10 µM
[19] = second compound 0.949 µM, first compound 0.0316 µM
[20] = second compound 0.949 µM, first compound 0.1 µM
[21] = second compound 0.949 µM, first compound 0.316 µM
[22] = second compound 0.949 µM, first compound 1 µM
[23] = second compound 0.949 µM, first compound 3.16 µM
[24] = second compound 0.949 µM, first compound 10 µM
[25] = second compound 3 µM, first compound 0.0316 µM
[26] = second compound 3 µM, first compound 0.1 µM
[27] = second compound 3 µM, first compound 0.316 µM
[28] = second compound 3 µM, first compound 1 µM
[29] = second compound 3 µM, first compound 3.16 µM
[30] = second compound 3 µM, first compound 10 µM

## O=C(c1cc(Cc2n[nH]c(=O)c3ccccc23)ccc1F)N1CCN(C(=O)C2CC2)CC1 + CCN1C(C(=O)NC23CCC(C(=O)O)(CC2)CC3)C(c2cccc(Cl)c2F)C2(C(=O)Nc3cc(Cl)ccc32)C12CCCCC2
Second compound 0.03 µM
  IC50: > 10 µM
Second compound 0.0949 µM
  IC50: > 10 µM
Second compound 0.3 µM
  IC50: > 10 µM
Second compound 0.949 µM
  IC50: > 10 µM
Second compound 3 µM
  IC50: > 10 µM
[1]
  viability, T/C: 102%
[2]
  viability, T/C: 116%
[3]
  viability, T/C: 95.9%
[4]
  viability, T/C: 100%
[5]
  viability, T/C: 104%
[6]
  viability, T/C: 97.9%
[7]
  viability, T/C: 108%
[8]
  viability, T/C: 105%
[9]
  viability, T/C: 110%
[10]
  viability, T/C: 100%
[11]
  viability, T/C: 102%
[12]
  viability, T/C: 104%
[13]
  viability, T/C: 106%
[14]
  viability, T/C: 107%
[15]
  viability, T/C: 123%
[16]
  viability, T/C: 116%
[17]
  viability, T/C: 107%
[18]
  viability, T/C: 100%
[19]
  viability, T/C: 120%
[20]
  viability, T/C: 124%
[21]
  viability, T/C: 121%
[22]
  viability, T/C: 121%
[23]
  viability, T/C: 121%
[24]
  viability, T/C: 105%
[25]
  viability, T/C: 116%
[26]
  viability, T/C: 120%
[27]
  viability, T/C: 108%
[28]
  viability, T/C: 110%
[29]
  viability, T/C: 128%
[30]
  viability, T/C: 110%

## C=C(F)C(=O)N1CCN(c2nc(OCC3CCCN3C)nc3c2CCN(c2cccc4cccc(Cl)c24)C3)CC1CC#N (stereo not given) + CCN1C(C(=O)NC23CCC(C(=O)O)(CC2)CC3)C(c2cccc(Cl)c2F)C2(C(=O)Nc3cc(Cl)ccc32)C12CCCCC2
Second compound 0.03 µM
  IC50: > 10 µM
Second compound 0.0949 µM
  IC50: > 10 µM
Second compound 0.3 µM
  IC50: > 10 µM
Second compound 0.949 µM
  IC50: > 10 µM
Second compound 3 µM
  IC50: > 10 µM
[1]
  viability, T/C: 124%
[2]
  viability, T/C: 106%
[3]
  viability, T/C: 108%
[4]
  viability, T/C: 102%
[5]
  viability, T/C: 108%
[6]
  viability, T/C: 93.2%
[7]
  viability, T/C: 112%
[8]
  viability, T/C: 107%
[9]
  viability, T/C: 113%
[10]
  viability, T/C: 101%
[11]
  viability, T/C: 109%
[12]
  viability, T/C: 96.2%
[13]
  viability, T/C: 108%
[14]
  viability, T/C: 114%
[15]
  viability, T/C: 103%
[16]
  viability, T/C: 115%
[17]
  viability, T/C: 110%
[18]
  viability, T/C: 98.1%
[19]
  viability, T/C: 115%
[20]
  viability, T/C: 119%
[21]
  viability, T/C: 117%
[22]
  viability, T/C: 106%
[23]
  viability, T/C: 114%
[24]
  viability, T/C: 105%
[25]
  viability, T/C: 135%
[26]
  viability, T/C: 119%
[27]
  viability, T/C: 117%
[28]
  viability, T/C: 120%
[29]
  viability, T/C: 112%
[30]
  viability, T/C: 114%

## CNC(C)C(=O)NC1CN(S(=O)(=O)c2cccc(S(=O)(=O)N3CCC4CCC(C(=O)NC(c5ccccc5)c5ccccc5)N4C(=O)C(NC(=O)C(C)NC)C3)c2)CCC2CCC(C(=O)NC(c3ccccc3)c3ccccc3)N2C1=O (stereo not given) + Cc1c(S(C)(=O)=O)c(-c2cc(F)cc(N3CCN(c4ccc(NS(=O)(=O)c5ccc(NC(CCN6CCC(C(=O)OCCCP(=O)(O)O)CC6)CSc6ccccc6)c(S(=O)(=O)C(F)(F)F)c5)cc4)CC3)c2)c(-c2ccc(Cl)cc2)n1C(C)C
Second compound 0.1 µM
  IC50: < 0.00316 µM
Second compound 0.316 µM
  IC50: < 0.00316 µM
Second compound 1 µM
  IC50: < 0.00316 µM
Second compound 3.16 µM
  IC50: < 0.00316 µM
Second compound 10 µM
  IC50: < 0.00316 µM
Second compound 0.1 µM, first compound 0.00316 µM
  viability, T/C: 34.8%
Second compound 0.1 µM, first compound 0.01 µM
  viability, T/C: 14.2%
Second compound 0.1 µM, first compound 0.0316 µM
  viability, T/C: 3.61%
Second compound 0.1 µM, first compound 0.1 µM
  viability, T/C: 1.15%
Second compound 0.1 µM, first compound 0.316 µM
  viability, T/C: 1.37%
Second compound 0.1 µM, first compound 1 µM
  viability, T/C: 1.37%
Second compound 0.316 µM, first compound 0.00316 µM
  viability, T/C: 34.8%
Second compound 0.316 µM, first compound 0.01 µM
  viability, T/C: 13.5%
Second compound 0.316 µM, first compound 0.0316 µM
  viability, T/C: 2.75%
Second compound 0.316 µM, first compound 0.1 µM
  viability, T/C: 2.2%
Second compound 0.316 µM, first compound 0.316 µM
  viability, T/C: 0.94%
Second compound 0.316 µM, first compound 1 µM
  viability, T/C: 0.56%
Second compound 1 µM, first compound 0.00316 µM
  viability, T/C: 32.3%
Second compound 1 µM, first compound 0.01 µM
  viability, T/C: 10.1%
Second compound 1 µM, first compound 0.0316 µM
  viability, T/C: 3.17%
Second compound 1 µM, first compound 0.1 µM
  viability, T/C: 2.28%
Second compound 1 µM, first compound 0.316 µM
  viability, T/C: 1.22%
Second compound 1 µM, first compound 1 µM
  viability, T/C: 0.43%
Second compound 3.16 µM, first compound 0.00316 µM
  viability, T/C: 31.1%
Second compound 3.16 µM, first compound 0.01 µM
  viability, T/C: 11%
Second compound 3.16 µM, first compound 0.0316 µM
  viability, T/C: 3.34%
Second compound 3.16 µM, first compound 0.1 µM
  viability, T/C: 0.68%
Second compound 3.16 µM, first compound 0.316 µM
  viability, T/C: 0.36%
Second compound 3.16 µM, first compound 1 µM
  viability, T/C: 0.39%
Second compound 10 µM, first compound 0.00316 µM
  viability, T/C: 28.9%
Second compound 10 µM, first compound 0.01 µM
  viability, T/C: 6.64%
Second compound 10 µM, first compound 0.0316 µM
  viability, T/C: 2.27%
Second compound 10 µM, first compound 0.1 µM
  viability, T/C: 0.74%
Second compound 10 µM, first compound 0.316 µM
  viability, T/C: 0.42%
Second compound 10 µM, first compound 1 µM
  viability, T/C: 0.45%
